Reference: PMC5344255, “Design, Synthesis and Biochemical Evaluation of Novel Selective Estrogen Receptor Ligand Conjugates Incorporating an Endoxifen-Combretastatin Hybrid Scaffold” (Biomedicines, 2016)

Key:
[1] = test system: MDA-MB-231 human breast cancer cells; test: Lactate dehydrogenase (LDH) cytotoxicity assay in MDA-MB-231; format: cell-based; conditions: % cell lysis at 10 μM
Description: (§1) In this assay, the release of cytoplasmic lactate dehydrogenase (LDH) is used as a measure of cell lysis. MCF-7 and MDA-MB-231 cells were seeded at a density of 1 × 10^4 cells/well in a 96-well plate and incubated for 24 h. The cells were then dosed with 2 μL volumes of the test compounds, over the concentration range 1 nM–50 μM. Cytotoxicity was determined using the CytoTox 96 nonradioactive cytotoxicity assay (Promega, Madison, WI, USA) following the manufacturer’s protocol.

[2] = test system: MDA-MB-231 human breast cancer cells; test: MTT assay for antiproliferative effects in MDA-MB-231; format: cell-based; conditions: MDA-MB-231, MTT assay
Description: The human breast carcinoma cell line, MCF-7, was purchased from the European Collection of Animal Cell Cultures (ECACC). The cells were maintained in MCF-7 complete medium; consisting of Eagle’s Minimum Essential Medium (MEM) supplemented with 10% (v/v) Foetal Bovine Serum (FBS), 2 mM L-glutamine, 100 μg/mL penicillin/streptomycin and 1% (v/v) non-essential amino acids. […] The human breast carcinoma cell line, MDA, was purchased from the European Collection of Animal Cell Cultures (ECACC). The cells were maintained in MDA complete medium; consisting of Dulbecco’s Modified Eagle’s Medium (D-MEM) supplemented with 10% (v/v) Foetal Bovine Serum (FBS), 2 mM L-glutamine, 100 μg/mL penicillin/streptomycin. […] The MTT assay was performed according to the reported protocol. The tetrazolium salt, 3-(4,5-dimethylthiazol-2-yl)-2,5-diphenyltetrazolium bromide (MTT) is taken up only by metabolically active cells and cleaved to form a formazan dye by mitochondrial dehydrogenases. […] Graphs of percentage cell viability versus concentration of the subject compound were processed using PRISM [31].

[3] = HPLC stability study in phosphate buffer; format: physicochemical; conditions: pH values in the range 4–9
Description: Analytical high-performance liquid chromatography (HPLC) stability studies were performed using a Symmetry® column (C18, 5 µm, 4.6 × 150 mm), a Waters 2487 Dual Wavelength Absorbance detector, a Waters 1525 binary HPLC pump and a Waters 717 plus Autosampler (Waters Corporation, Milford, MA, USA). Samples were detected at wavelength of 254 nm. All samples were analysed using acetonitrile (80%):water (20%) as the mobile phase over 10 min and a flow rate of 1 mL/min. Stock solutions are prepared by dissolving 5mg of compound in 10 mL of mobile phase. Phosphate buffers at the desired pH values (4, 7.4, and 9) were prepared in accordance with the British Pharmacopoeia monograph 2015. 30 µL of stock solution was diluted with 1 mL of appropriate buffer, shaken and injected immediately. Samples were withdrawn and analysed at time intervals of t = 0 min, 5 min, 30 min, 60 min, 90 min, 120 min, 24 h and 48 h.

[4] = test system: MCF-7 human breast cancer cells; test: MTT assay for antiproliferative effects in MCF-7; format: cell-based
Description: The human breast carcinoma cell line, MCF-7, was purchased from the European Collection of Animal Cell Cultures (ECACC). The cells were maintained in MCF-7 complete medium; consisting of Eagle’s Minimum Essential Medium (MEM) supplemented with 10% (v/v) Foetal Bovine Serum (FBS), 2 mM L-glutamine, 100 μg/mL penicillin/streptomycin and 1% (v/v) non-essential amino acids. Cell cultures were maintained at 37 °C under a humidified atmosphere of 5% CO2/95% O2. The human breast carcinoma cell line, MDA, was purchased from the European Collection of Animal Cell Cultures (ECACC). The cells were maintained in MDA complete medium; consisting of Dulbecco’s Modified Eagle’s Medium (D-MEM) supplemented with 10% (v/v) Foetal Bovine Serum (FBS), 2 mM L-glutamine, 100 μg/mL penicillin/streptomycin. Cell cultures were maintained at 37 °C under a humidified atmosphere of 5% CO2/95% O2. The MTT assay was performed according to the reported protocol. The tetrazolium salt, 3-(4,5-dimethylthiazol-2-yl)-2,5-diphenyltetrazolium bromide (MTT) is taken up only by metabolically active cells and cleaved to form a formazan dye by mitochondrial dehydrogenases. Assays where repeated in three experiments performed in triplicate (unless otherwise stated) and reported results represent the mean value ± standard error mean. Graphs of percentage cell viability versus concentration of the subject compound were processed using PRISM [31].

[5] = test system: MCF-7 human breast cancer cells; test: Lactate dehydrogenase (LDH) cytotoxicity assay in MCF-7; format: cell-based; conditions: % cell lysis at 10 µM
Description: as §1

[6] = test system: Ishikawa cell line of human endometrial adenocarcinoma cells; test: Ishikawa assay, estrogen stimulation of alkaline phosphatase activity; format: cell-based
Description: The Ishikawa assay is used to measure estrogen stimulation of alkaline phosphatase enzyme activity (AlkP) by the Ishikawa cell line of human endometrial adenocarcinoma cells. The Ishikawa assay provides a measure of the agonist activity of a compound. […] The assay was carried out following the method of Littlefield et al.. The batch of Ishikawa cells were obtained as a gift from Professor R. Hochberg—who developed the alkaline phosphatase assay in Yale University, CT, USA.
The Ishikawa assay is used to measure estrogen stimulation of alkaline phosphatase enzyme activity (AlkP) by the Ishikawa cell line of human endometrial adenocarcinoma cells. […] The conjugate was dosed in duplicate.

[7] = Homo sapiens, MCF7, MCF-7, MTT assay, mean of at least three experiments in triplicate
[8] = Homo sapiens, MCF7, MCF-7, MTT assay, values in nM

Compound	% Cell Death at 10 μM [1] [%]	IC50 [2] [nM]	IC50 [4, 7] [nM]	% Cell Death at 10 μM [5] [%]	melting point [°C]	also measured
CCC(=C(c1ccc(O)cc1)c1ccc(OCCN(C)C(=O)/C(=C/c2ccc(OC)c(O)c2)c2cc(OC)c(OC)c(OC)c2)cc1)c1ccccc1 (mixture of isomers) [Compound 27, (E)-3-(3-Hydroxy-4-methoxyphenyl)-N-(2-{4-[(E/Z)-1-(4-hydroxyphenyl)-2-phenylbut-1-enyl]phenoxy}ethyl)-N-methyl-2-(3,4,5-trimethoxyphenyl) acrylamide]	17	2670	33	10	–	half-life at 14.6 µg/mL [3]: > 24 h; IC50 [4, 8]: 0.033 nM
CCC(=C(c1ccc(O)cc1)c1ccc(OCCN(C)C(=O)/C(=C/c2ccc(Br)cc2)c2cc(OC)c(OC)c(OC)c2)cc1)c1ccccc1 (mixture of isomers) [Compound 41, (E)-3-(4-Bromophenyl)-N-(2-{4-[(E/Z)-1-(4-hydroxyphenyl)-2-phenylbut-1-enyl]phenoxy}ethyl)-N-methyl-2-(3,4,5-trimethoxyphenyl)acrylamide]	0	> 50000	1030	5	–	–
CCC(=C(c1ccc(O)cc1)c1ccc(OCCN(C)C(=O)/C(=C/c2ccc(Br)cc2)c2cc(OC)c(OC)c(OC)c2)cc1)c1ccc(O)cc1 (mixture of isomers) [Compound 42, (E)-N-(2-{4-[(E/Z)-1,2-Bis-(4-hydroxyphenyl)but-1-enyl]phenoxy}ethyl)-3-(4-bromophenyl)-N-methyl-2-(3,4,5-trimethoxyphenyl)acrylamide]	9	> 50000	2350	7	–	–
CCC(=C(c1ccc(O)cc1)c1ccc(OCCN(C)C(=O)/C(=C/c2ccc(OC)c(F)c2)c2cc(OC)c(OC)c(OC)c2)cc1)c1ccccc1 (mixture of isomers) [Compound 43, (E)-3-(3-Fluoro-4-methoxyphenyl)-N-(2-{4-[(E/Z)-1-(4-hydroxyphenyl)-2-phenylbut-1-enyl]phenoxy}ethyl)-N-methyl-2-(3,4,5-trimethoxyphenyl) acrylamide]	0	30300	180	2	–	–
CCC(=C(c1ccc(O)cc1)c1ccc(OCCN(C)C(=O)/C(=C/c2ccc(OC)c(F)c2)c2cc(OC)c(OC)c(OC)c2)cc1)c1ccc(O)cc1 (mixture of isomers) [Compound 44, (E)-N-(2-{4-[(E/Z)-1,2-Bis-(4-hydroxyphenyl)but-1-enyl]phenoxy}ethyl)-3-(3-fluoro-4-methoxyphenyl)-N-methyl-2-(3,4,5-trimethoxyphenyl)acrylamide]	14	1850	194	10	–	–
CCC(=C(c1ccc(O)cc1)c1ccc(OCCN(C)C(=O)/C(=C/c2ccc(OC)c(N)c2)c2cc(OC)c(OC)c(OC)c2)cc1)c1ccccc1 (mixture of isomers) [Compound 45, (E)-3-(3-Amino-4-methoxyphenyl)-N-(2-{4-[(E/Z)-1-(4-hydroxyphenyl)-2-phenylbut-1-enyl]phenoxy}ethyl)-N-methyl-2-(3,4,5-trimethoxyphenyl) acrylamide]	0	7110	959	8	–	–
CCC(=C(c1ccc(O)cc1)c1ccc(OCCN(C)C(=O)/C(=C/c2ccc(OC)c(N)c2)c2cc(OC)c(OC)c(OC)c2)cc1)c1ccc(O)cc1 (mixture of isomers) [Compound 46, (E)-3-(3-Amino-4-methoxyphenyl)-N-(2-{4-[(E/Z)-1,2-bis-(4-hydroxyphenyl)but-1-enyl]phenoxy}ethyl)-N-methyl-2-(3,4,5-trimethoxyphenyl) acrylamide]	0	49700	6150	6	–	–
COc1ccc(/C=C(/C(=O)O)c2cc(OC)c(OC)c(OC)c2)cc1N [Compound 16, (E)-3-(3-Amino-4-methoxyphenyl)-2-(3,4,5-trimethoxyphenyl)acrylic acid]	–	–	< 10000	–	199 to 202	IC50 ([4]; MCF-7, MTT assay, mean of at least three experiments in triplicate): 6700 nM
COc1cc(/C(=C\c2ccc(Br)cc2)C(=O)O)cc(OC)c1OC [Compound 17, (E)-3-(4-Bromophenyl)-2-(3,4,5-trimethoxyphenyl)acrylic Acid]	–	–	> 50000	–	227 to 230	–
COc1cc(/C(=C\c2ccc(F)cc2)C(=O)O)cc(OC)c1OC [Compound 18, (E)-3-(4-Fluorophenyl)-2-(3,4,5-trimethoxyphenyl)acrylic acid]	–	–	> 50000	–	211 to 213	–
COc1cc(/C(=C\c2ccc(C)cc2)C(=O)O)cc(OC)c1OC [Compound 19, (E)-3-p-Tolyl-2-(3,4,5-trimethoxyphenyl)acrylic acid]	–	–	26100	–	190 to 193	–
COc1cc(/C(=C\c2ccc(SC)cc2)C(=O)O)cc(OC)c1OC [Compound 20, (E)-3-(4-Methylsulfanylphenyl)-2-(3,4,5-trimethoxyphenyl)acrylic acid]	–	–	10600	–	194 to 196	–
COc1cc(/C(=C\c2ccc3ccccc3c2)C(=O)O)cc(OC)c1OC [Compound 22, (E)-3-Naphthalen-2-yl-2-(3,4,5-trimethoxyphenyl)acrylic acid]	–	–	15300	–	238 to 240	–
COc1ccc(/C=C\c2cc(OC)c(OC)c(OC)c2)cc1O [Compound 26, Combretastatin A-4, reference compound]	4	43	8	13	–	IC50 [4, 8]: 8 nM
COc1ccc(/C(=C\c2cc(OC)c(OC)c(OC)c2)C(=O)N2CCCCC2)cc1 [Compound 47, (E)-2-(4-Methoxyphenyl)-1-(piperidin-1-yl)-3-(3,4,5-trimethoxyphenyl)prop-2-en-1-one]	–	–	> 50000	–	106 to 108	–
CC/C(=C(\c1ccccc1)c1ccc(OCCN(C)C)cc1)c1ccccc1 [Tamoxifen, reference compound]	0	–	–	–	–	estrogenic activity (alkaline phosphatase stimulation) ([6]; compound dosed individually): displays some estrogenic activity at higher concentrations; estrogen stimulation (alkaline phosphatase) in mixture with estradiol ([6]; dosed with 1 nM estradiol spike): estrogen stimulation at low concentration while a reduction occurs as the concentration of Tamoxifen is increased
